Assay results reported in patent US6642392B1 (priority 1997, dated 2003).
Like-named read-outs stand apart in the source and are kept apart here.

How the values were obtained:
Type in all cases: in vivo
[1] = tested on: Eiysiphe graminis f. sp. tritici; test: Test A: wheat powdery mildew, preventive spray on wheat seedlings; settings: for Test A disease control rating: wheat powdery mildew; for Test A disease control rating (100 = 100% disease control, 0 = no disease control): wheat seedlings sprayed to run-off, inoculated the following day, rating relative to controls, unmarked compounds (standard test rate)
Experimental: (§1) The resulting test suspensions were then used in the following tests. […]
The test suspension was sprayed to the point of run-off on wheat seedlings. The following day the seedlings were inoculated with a spore dust of Eiysiphe graminis f. sp. tritici, (the causal agent of wheat powdery mildew) and incubated in a growth chamber at 20° C. for 7 days, after which disease ratings were made.
(§2) Results for Tests A-E are given in Table A. In the table, a rating of 100 indicates 100% disease control and a rating of 0 indicates no disease control (relative to the controls). A dash (-) indicates no test results. ND indicates disease control not determined due to phytotoxicity.

Puccinia recondita = test: Test B: wheat leaf rust, preventive spray on wheat seedlings; settings: for Test B disease control rating: wheat leaf rust; for Test B disease control rating (100 = 100% disease control, 0 = no disease control): wheat seedlings sprayed to run-off, inoculated the following day, rating relative to controls, unmarked compounds (standard test rate)
Experimental: as §1
(§3) The test suspension was sprayed to the point of run-off on wheat seedlings. The following day the seedlings were inoculated with a spore suspension of Puccinia recondita (the causal agent of wheat leaf rust) and incubated in a saturated atmosphere at 20° C. for 24 h, and then moved to a growth chamber at 20° C. for 6 days, after which disease ratings were made.
as §2

Pyricularia oryzae = settings: for Test C disease control rating: rice blast; for Test C disease control rating (100 = 100% disease control, 0 = no disease control): rice seedlings sprayed to run-off, inoculated the following day, rating relative to controls, unmarked compounds (standard test rate)
Phytophthora infestans = settings: for Test D disease control rating: tomato late blight; for Test D disease control rating (100 = 100% disease control, 0 = no disease control): tomato seedlings sprayed to run-off, inoculated the following day, rating relative to controls, unmarked compounds (standard test rate)
Botrytis cinerea = test: Test E: gray mold, preventive spray on cucumber seedlings; settings: for Test E disease control rating: gray mold on cucumber; for Test E disease control rating (100 = 100% disease control, 0 = no disease control): cucumber seedlings sprayed to run-off, inoculated the following day, rating relative to controls, unmarked compounds (standard test rate)
Experimental: The resulting test suspensions were then used in the following tests. Spraying these 200 ppm test suspensions to the point of run-off on the test plants is the equivalent of a rate of 500 g/ha.
as §3, with “cucumber” for “wheat”, “Botrytis cinerea” for “Puccinia recondita”, “gray mold on many crops)” for “wheat leaf rust)”, “48” for “24”, “and” for “and then”, “5” for “6”
as §2

[2] = 100 = 100% disease control, 0 = no control relative to controls, unmarked entries (standard test concentration)
[3] = 100 = 100% disease control, 0 = no control, unmarked entries (standard test concentration)

Compound | Test A disease control rating [1, 2] | Test B disease control rating (Puccinia recondita; [3]) | Test C disease control rating (Pyricularia oryzae; [3]) | Test D disease control rating (Phytophthora infestans; [3]) | Test E disease control rating (Botrytis cinerea; [3]) | further results
CC(COc1ccccc1I)NC(=O)C(C#N)C(C)(C)C (mixture of isomers) [11a] | 77% | 0% | 97% | 0% | 82% | 
CCC1(C(=O)NC(C)COc2ccc(F)cc2C#N)C(C)C1(Cl)Cl (mixture of isomers) [compound 129] | 38% | 26% | 74% | 0% | 0% | 
CC(COn1c(Cl)c(Cl)c(Cl)c1C#N)NC(=O)C(C#N)C(C)(C)C (mixture of isomers) [compound 52] | 71% | 86% | 0% | 81% | 0% | 
CCC1(C(=O)NC(C)COc2cccc(F)c2C#N)C(C)C1(Cl)Cl (mixture of isomers) [compound 130] | 0% | 0% | 32% | 2% | 0% | 
CCCC(C#N)C(=O)NC(C)C(Oc1cc(F)ccc1C#N)c1ccccc1 (mixture of isomers) [compound 287] |  |  |  |  |  | Test A disease control rating (100 = 100% disease control, 0 = no disease control) [1]: 0%; Test B disease control rating (100 = 100% disease control, 0 = no disease control) (Puccinia recondita): 0%; Test C disease control rating (100 = 100% disease control, 0 = no disease control) (Pyricularia oryzae): 97%; Test D disease control rating (100 = 100% disease control, 0 = no disease control) (Phytophthora infestans): 23%; Test E disease control rating (100 = 100% disease control, 0 = no disease control) (Botrytis cinerea): 0%
CCC1(C(=O)NC(C)COc2ccccc2C)C(C)C1(Cl)Cl (mixture of isomers) [compound 95] |  |  |  |  |  | Test A disease control rating ([1]; tested at 40 ppm): 52%; Test B disease control rating (Puccinia recondita; tested at 40 ppm): 86%; Test C disease control rating (Pyricularia oryzae; tested at 40 ppm): 94%; Test D disease control rating (Phytophthora infestans; tested at 40 ppm): 0%; Test E disease control rating (Botrytis cinerea; tested at 40 ppm): 0%
C[C@H](COc1cc(Cl)c(Cl)cc1Cl)NC(=O)C(C#N)C(C)(C)C (single isomer, unassigned) [174b] | 0% | 28% | 52% | 91% | 0% | 
CC(COc1ccc(F)cc1)NC(=O)C(C#N)C(C)(C)C (single isomer, unassigned) [4a] | 0% | 67% | 99% | 66% | 0% | 
CC(C)(C)C(C#N)C(=O)NCCCn1c(C#N)cc(Cl)c1Cl (racemic) [compound 55] | 0% | 0% | 85% | 0% | 0% | 
C[C@H](COc1cc(F)c(Cl)cc1F)NC(=O)C(C#N)C(C)(C)C (single isomer, unassigned) [173a] | 63% | 28% | 52% | 33% | 0% | 
CCC1(C(=O)NC(C)COc2ccc(Br)cc2)C(C)C1(Cl)Cl (mixture of isomers) [86a] |  |  |  |  |  | Test A disease control rating ([1]; tested at 40 ppm): 0%; Test B disease control rating (Puccinia recondita; tested at 40 ppm): 67%; Test C disease control rating (Pyricularia oryzae; tested at 40 ppm): 0%; Test D disease control rating (Phytophthora infestans; tested at 40 ppm): 0%; Test E disease control rating (Botrytis cinerea; tested at 40 ppm): 0%
CCC1(C(=O)NC(C)COc2ccccc2F)C(C)C1(Cl)Cl (mixture of isomers) [78a] | 0% | 93% | 90% | 0% | 74% | 
CCC1(C(=O)NC(C)COc2cc(F)c(F)cc2F)C(C)C1(Cl)Cl (centres unmarked) [compound 236] |  |  |  |  |  | Test A disease control rating (100 = 100% disease control, 0 = no disease control) [1]: 77%; Test B disease control rating (100 = 100% disease control, 0 = no disease control) (Puccinia recondita): 0%; Test C disease control rating (100 = 100% disease control, 0 = no disease control) (Pyricularia oryzae): 97%; Test D disease control rating (100 = 100% disease control, 0 = no disease control) (Phytophthora infestans): 0%; Test E disease control rating (100 = 100% disease control, 0 = no disease control) (Botrytis cinerea): 0%
C[C@H](COc1c(Cl)ccc(Cl)c1Cl)NC(=O)C(C#N)C(C)(C)C (single isomer, unassigned) [171a] | 0% | 0% | 86% | 0% | 0% | 
CC(C)(C)C(C#N)C(=O)NCCCc1ccccc1 (racemic) [compound 54] | 34% | 11% | 32% | 0% | 16% | 
CCC1(C(=O)NC(C)COc2c(C#N)cccc2C(F)(F)F)C(C)C1(Cl)Cl (mixture of isomers) [compound 134] | 0% | 0% | 0% | 30% | 0% | 
CC(C=Cc1ccccc1C#N)NC(=O)C(C#N)C(C)(C)C (mixture of isomers) [compound 307] |  |  |  |  |  | Test A disease control rating (100 = 100% disease control, 0 = no disease control) [1]: 36%; Test B disease control rating (100 = 100% disease control, 0 = no disease control) (Puccinia recondita): 0%; Test C disease control rating (100 = 100% disease control, 0 = no disease control) (Pyricularia oryzae): 94%; Test D disease control rating (100 = 100% disease control, 0 = no disease control) (Phytophthora infestans): 0%; Test E disease control rating (100 = 100% disease control, 0 = no disease control) (Botrytis cinerea): 0%
CCC1(C(=O)NC(C)COn2c(C)cc(C)c2C#N)C(C)C1(Cl)Cl (mixture of isomers) [compound 136] | 34% | 0% | 78% | 0% | 0% | 
CCC1(C(=O)NC(C)COn2cc(Br)cc2C#N)C(C)C1(Cl)Cl (mixture of isomers) [compound 137] | 0% | 0% | 53% | 0% | 0% | 
CC(COc1ccccc1)NC(=O)C1(C)C(C)C1(Cl)Cl (mixture of isomers) [compound 310] |  |  |  |  |  | Test A disease control rating (100 = 100% disease control, 0 = no disease control) [1]: 84%; Test B disease control rating (100 = 100% disease control, 0 = no disease control) (Puccinia recondita): 25%; Test C disease control rating (100 = 100% disease control, 0 = no disease control) (Pyricularia oryzae): 53%; Test D disease control rating (100 = 100% disease control, 0 = no disease control) (Phytophthora infestans): 0%; Test E disease control rating (100 = 100% disease control, 0 = no disease control) (Botrytis cinerea): 18%
Cc1ccc(Cl)c(OC[C@@H](C)NC(=O)C(C#N)C(C)(C)C)c1 (single isomer, unassigned) [15a] | 0% | 28% | 97% | 92% | 86% | 
CC(COc1ccccc1)NC(=O)C1(C)CC1(Cl)Cl (mixture of isomers) [compound 311] |  |  |  |  |  | Test A disease control rating (100 = 100% disease control, 0 = no disease control) [1]: 84%; Test B disease control rating (100 = 100% disease control, 0 = no disease control) (Puccinia recondita): 0%; Test C disease control rating (100 = 100% disease control, 0 = no disease control) (Pyricularia oryzae): 0%; Test D disease control rating (100 = 100% disease control, 0 = no disease control) (Phytophthora infestans): 0%; Test E disease control rating (100 = 100% disease control, 0 = no disease control) (Botrytis cinerea): 0%
C[C@H](COc1cc(F)cc(F)c1F)NC(=O)C(C#N)C(C)(C)C (single isomer, unassigned) [168b] | 95% | 0% | 94% | 45% | 86% | 
CC(C)C(C#N)C(=O)NC(C)C(Oc1cc(F)ccc1C#N)c1ccccc1 (mixture of isomers) [compound 289] |  |  |  |  |  | Test A disease control rating (100 = 100% disease control, 0 = no disease control) [1]: 0%; Test B disease control rating (100 = 100% disease control, 0 = no disease control) (Puccinia recondita): 0%; Test C disease control rating (100 = 100% disease control, 0 = no disease control) (Pyricularia oryzae): 90%; Test D disease control rating (100 = 100% disease control, 0 = no disease control) (Phytophthora infestans): 45%; Test E disease control rating (100 = 100% disease control, 0 = no disease control) (Botrytis cinerea): 0%
C[C@H](COc1cc(F)ccc1Br)NC(=O)C(C#N)C(C)(C)C (single isomer, unassigned) [166a] | 0% | 0% | 99% | 76% | 58% | 
